# In patent US20230183215A1, “Notch Inhibitors and Uses Thereof” (StemSynergy Therapeutics, Inc., priority 2020, published 2023):
# Structures can show the parent of a compound that is named as a salt.
# Key:
# Notch1 = target: T1, Notch1 (Homo sapiens, UniProt P46531); experiment: Notch1 Reporter Assay (CSL-responsive luciferase, doxycycline-induced Notch-ICD in 293A cells); type: cell-based; conditions: 25 ng/mL Dox, 24 h, luciferase normalized to cell viability
# T1 construct: pLV[Tet]-Puro-TRE3G>Notch1-ICD; expressed in transfected cells; host or cells: 293A cells
# Protocol: 293A cells expressing 1) pCMV-Tet-On 3G, 2) pLV[Tet]-Puro-TRE3G>Notch1-ICD, 3) pLV[Tet]-Puro-TRE3G>Notch2-ICD, 4) pLV[Tet]-Puro-TRE3G>Notch3-ICD, and 5) pCSL-RElement-Luc were used. When Doxycycline is added, the Tet-ON gene activates expression of hNotch1ICD, which together with endogenous NTC components binds to CSL responsive elements (pCSL-RElement-Luc) and expresses luciferase. 1×10^4 cells are plated in 100 μL (96-well format). 24 h later, compounds (10 mM stock in DMSO) are diluted in DMSO to 200×, then added (5 ul into 1 mL) to cell culture media containing 50 ng/mL Dox. This is then added 1:1 to cells. Final DMSO=0.25%, Dox=25 ng/mL. After 24 h, media is discarded, and cells are lysed in passive lysis buffer (Promega). Cells are rocked at room temperature for 15 min and then lysate is divided for luciferase assay (Luciferase Assay System, Promega) and cell viability (CellTiter Glo 2.0, Promega). Raw luciferase is normalized to cell viability, and then scaled to DMSO wells. Results are analyzed and IC50's are determined in GraphPad by nonlinear regression curve fitting (4 parameter) of dose response curves.
# [1] = test system: OE33 Esophageal Adenocarcinoma cell line; experiment: OE33 Colony Formation Assay; type: cell-based; conditions: Homo sapiens, 200 cells/well, compound every 48 hours for 7 days, CellTiter-Glo
# Protocol: OE33 Colony Formation Assay:
# The OE33 Esophageal Adenocarcinoma cell line was cultured and plated into 96-well tissue culture plates under sparse conditions (200 cells/well). Test compounds were serially diluted in DMSO and then into culture media (final DMSO concentration=0.1%). Compound/media was then added to cells every 48 hours for a total of 7 days. Clonogenic growth was assessed using the CellTiter-Glo reagent, according to manufacturer (Promega) specifications. Percent inhibition was calculated as the percent of luminescence normalized to control (0.1% DMSO) wells. Nonlinear regression curve fitting was performed using GraphPad Prism software to determine EC50's.
# T1 sequence (P46531 1754-2555 limits assumed): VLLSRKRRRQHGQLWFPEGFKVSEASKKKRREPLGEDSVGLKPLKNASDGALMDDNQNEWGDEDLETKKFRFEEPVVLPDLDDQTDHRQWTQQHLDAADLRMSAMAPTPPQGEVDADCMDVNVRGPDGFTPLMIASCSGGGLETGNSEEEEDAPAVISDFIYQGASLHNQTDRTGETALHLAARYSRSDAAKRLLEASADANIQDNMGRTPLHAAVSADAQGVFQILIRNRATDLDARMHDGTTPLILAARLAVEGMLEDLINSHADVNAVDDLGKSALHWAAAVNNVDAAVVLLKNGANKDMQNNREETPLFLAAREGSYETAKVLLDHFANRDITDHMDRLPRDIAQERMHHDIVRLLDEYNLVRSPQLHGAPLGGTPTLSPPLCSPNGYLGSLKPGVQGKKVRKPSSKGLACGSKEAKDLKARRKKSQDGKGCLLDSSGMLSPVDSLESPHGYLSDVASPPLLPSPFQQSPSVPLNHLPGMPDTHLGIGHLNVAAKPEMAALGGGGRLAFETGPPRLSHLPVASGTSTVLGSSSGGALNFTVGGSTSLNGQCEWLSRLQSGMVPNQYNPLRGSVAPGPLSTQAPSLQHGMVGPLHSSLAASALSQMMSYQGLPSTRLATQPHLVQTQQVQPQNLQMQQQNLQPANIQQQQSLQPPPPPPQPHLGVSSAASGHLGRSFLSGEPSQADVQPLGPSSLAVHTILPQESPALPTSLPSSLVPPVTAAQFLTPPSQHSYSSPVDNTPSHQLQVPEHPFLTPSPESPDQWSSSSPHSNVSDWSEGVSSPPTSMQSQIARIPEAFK
EC50 [1] [µM],SMILES,IC50 (Notch1) [µM]
1.7,"COc1cc(-c2cc(C(F)(F)F)cc3c2n(C)c(=O)n3CC(=O)Nc2cccc(C3CC3)c2)cc(F)c1OCc1nnc[nH]1 [SSTN-547, 2-(4-(4-((4H-1,2,4-triazol-3-yl)methoxy)-3-fluoro-5-methoxyphenyl)-3-methyl-2-oxo-6-(trifluoromethyl)-2,3-dihydro-1H-benzo[d]imidazol-1-yl)-N-(3-cyclopropylphenyl)acetamide]",5.9
2.9,"COc1cc(-c2cc(C(F)(F)F)cc3c2n(C)c(=O)n3CC(=O)Nc2ccc(OC(F)F)cc2)cc(F)c1OCc1nnc[nH]1 [SSTN-497, 2-(4-(4-((4H-1,2,4-triazol-3-yl)methoxy)-3-fluoro-5-methoxyphenyl)-3-methyl-2-oxo-6-(trifluoromethyl)-2,3-dihydro-1H-benzo[d]imidazol-1-yl)-N-(4-(difluoromethoxy)phenyl)acetamide hydrochloride]",6.9
3.6,"COc1cc(-c2cc(C(F)(F)F)cc3c2n(C)c(=O)n3CC(=O)Nc2cccc(-c3ccccc3)c2)cc(F)c1OCc1nnc[nH]1 [SSTN-546, 2-(4-(4-((4H-1,2,4-triazol-3-yl)methoxy)-3-fluoro-5-methoxyphenyl)-3-methyl-2-oxo-6-(trifluoromethyl)-2,3-dihydro-1H-benzo[d]imidazol-1-yl)-N-([1,1′-biphenyl]-3-yl)acetamide]",4.2
2.8,"COc1cc(-c2cc(C(F)(F)F)cc3c2n(C)c(=O)n3CC(=O)N(C)c2ccc(F)cc2F)cc(F)c1OCc1nnc[nH]1 [compound 447, 2-(4-(4-((4H-1,2,4-triazol-3-yl)methoxy)-3-fluoro-5-methoxyphenyl)-3-methyl-2-oxo-6-(trifluoromethyl)-2,3-dihydro-1H-benzo[d]imidazol-1-yl)-N-(2,4-difluorophenyl)-N-methylacetamide hydrochloride]",3.3
8.4,"COc1cc(-c2cc(C(F)(F)F)cc3c2n(C)c(=O)n3CC(=O)Nc2ccc(S(C)(=O)=O)cc2)cc(F)c1OCc1nnc[nH]1 [SSTN-503, 2-(4-(4-((4H-1,2,4-triazol-3-yl)methoxy)-3-fluoro-5-methoxyphenyl)-3-methyl-2-oxo-6-(trifluoromethyl)-2,3-dihydro-1H-benzo[d]imidazol-1-yl)-N-(4-(methylsulfonyl)phenyl)acetamide hydrochloride]",12.5
8,"COc1cc(-c2cc(C(F)(F)F)cc3c2n(C)c(=O)n3CC(=O)Nc2cncc(C)c2)cc(F)c1OCc1nnc[nH]1 [SSTN-502, 2-(4-(4-((4H-1,2,4-triazol-3-yl)methoxy)-3-fluoro-5-methoxyphenyl)-3-methyl-2-oxo-6-(trifluoromethyl)-2,3-dihydro-1H-benzo[d]imidazol-1-yl)-N-(5-methylpyridin-3-yl)acetamide hydrochloride]",12
1.7,"COc1cc(-c2cc(C(F)(F)F)cc3c2n(C)c(=O)n3CC(=O)N(c2ccc(F)cc2)C(C)C)cc(F)c1OCc1nnc[nH]1 [SSTN-542, 2-(4-(4-((4H-1,2,4-triazol-3-yl)methoxy)-3-fluoro-5-methoxyphenyl)-3-methyl-2-oxo-6-(trifluoromethyl)-2,3-dihydro-1H-benzo[d]imidazol-1-yl)-N-(4-fluorophenyl)-N-isopropylacetamide]",3.8
4.7,"COc1cc(-c2cc(C(F)(F)F)cc3c2n(C)c(=O)n3CC(=O)Nc2cccc(N3CCOCC3)c2)cc(F)c1OCc1nnc[nH]1 [SSTN-558, 2-(4-(4-((4H-1,2,4-triazol-3-yl)methoxy)-3-fluoro-5-methoxyphenyl)-3-methyl-2-oxo-6-(trifluoromethyl)-2,3-dihydro-1H-benzo[d]imidazol-1-yl)-N-(3-morpholinophenyl)acetamide]",9.4
11.6,"COc1cc(-c2cc(C(F)(F)F)cc3c2n(C)c(=O)n3CC(=O)Nc2ccc(F)cc2)ccc1OCc1nnc[nH]1 [SSTN-598, 2-(4-(4-((4H-1,2,4-triazol-3-yl)methoxy)-3-methoxyphenyl)-3-methyl-2-oxo-6-(trifluoromethyl)-2,3-dihydro-1H-benzo[d]imidazol-1-yl)-N-(4-fluorophenyl)acetamide hydrochloride salt]",6.4
18.9,"COC(=O)c1cc(OCc2nnc[nH]2)c(OC)cc1-c1cc(C(F)(F)F)cc2c1n(C)c(=O)n2CC(=O)Nc1ccc(F)cc1 [SSTN-604, Methyl 5-((4H-1,2,4-triazol-3-yl)methoxy)-2-(1-(2-((4-fluorophenyl)amino)-2-oxoethyl)-3-methyl-2-oxo-6-(trifluoromethyl)-2,3-dihydro-1H-benzo[d]imidazol-4-yl)-4-methoxybenzoate hydrochloride salt]",10.4
1.7,"COc1cc(-c2cc(C(F)(F)F)cc3c2n(C)c(=O)n3CC(=O)Nc2cccc(C(C)(C)C)c2)cc(F)c1OCc1nnc[nH]1 [SSTN-555, 2-(4-(4-((4H-1,2,4-triazol-3-yl)methoxy)-3-fluoro-5-methoxyphenyl)-3-methyl-2-oxo-6-(trifluoromethyl)-2,3-dihydro-1H-benzo[d]imidazol-1-yl)-N-(3-(tert-butyl)phenyl)acetamide]",4.1
2.7,"COc1cc(-c2cc(C(F)(F)F)cc3c2n(C)c(=O)n3CC(=O)Nc2ccc(SC)cc2F)cc(F)c1OCc1nnc[nH]1 [SSTN-500, 2-(4-(4-((4H-1,2,4-triazol-3-yl)methoxy)-3-fluoro-5-methoxyphenyl)-3-methyl-2-oxo-6-(trifluoromethyl)-2,3-dihydro-1H-benzo[d]imidazol-1-yl)-N-(2-fluoro-4-(methylthio)phenyl)acetamide hydrochloride]",7.4
7.1,"COc1cc(-c2cc(C(F)(F)F)cc3c2n(C)c(=O)n3CC(=O)Nc2ccc(F)cc2F)cc(F)c1OCc1nnc[nH]1 [SSTN-494, 2-(4-(4-((4H-1,2,4-triazol-3-yl)methoxy)-3-fluoro-5-methoxyphenyl)-3-methyl-2-oxo-6-(trifluoromethyl)-2,3-dihydro-1H-benzo[d]imidazol-1-yl)-N-(2,4-difluorophenyl)acetamide hydrochloride]",12.1
2.4,"COc1ccccc1NC(=O)Cn1c(=O)n(C)c2c(-c3cc(F)c(OCc4nnc[nH]4)c(OC)c3)cc(C(F)(F)F)cc21 [SSTN-493, 2-(4-(4-((4H-1,2,4-triazol-3-yl)methoxy)-3-fluoro-5-methoxyphenyl)-3-methyl-2-oxo-6-(trifluoromethyl)-2,3-dihydro-1H-benzo[d]imidazol-1-yl)-N-(2-methoxyphenyl)acetamide hydrochloride]",8.5
1.3,"COc1cc(-c2cc(C(F)(F)F)cc3c2n(C2CC2)c(=O)n3CC(=O)N(C)c2ccc(F)cc2)cc(F)c1OCc1nnc[nH]1 [compound 464, 2-(4-(4-((4H-1,2,4-triazol-3-yl)methoxy)-3-fluoro-5-methoxyphenyl)-3-cyclopropyl-2-oxo-6-(trifluoromethyl)-2,3-dihydro-1H-benzo[d]imidazol-1-yl)-N-(4-fluorophenyl)-N-methylacetamide hydrochloride]",1.7
5.2,"COc1cc(-c2cc(C(F)(F)F)cc3c2n(C)c(=O)n3CC(=O)Nc2ccc(F)cc2)cc(F)c1OCc1nnc[nH]1 [compound 465, 2-(4-(4-((4H-1,2,4-triazol-3-yl)methoxy)-3-fluoro-5-methoxyphenyl)-3-methyl-2-oxo-6-(trifluoromethyl)-2,3-dihydro-1H-benzo[d]imidazol-1-yl)-N-(4-fluorophenyl)acetamide hydrochloride]",8.6
18.8,"COc1cc(-c2cc(C(F)(F)F)cc3c2n(C)c(=O)n3CC(=O)Nc2ccc(F)nc2)cc(F)c1OCc1nnc[nH]1 [SSTN-609, 2-(4-(4-((4H-1,2,4-triazol-3-yl)methoxy)-3-fluoro-5-methoxyphenyl)-3-methyl-2-oxo-6-(trifluoromethyl)-2,3-dihydro-1H-benzo[d]imidazol-1-yl)-N-(6-fluoropyridin-3-yl)acetamide]",10.3
17.1,"COc1cc(-c2cc(C(F)(F)F)cc3c2n(C)c(=O)n3CC(=O)Nc2cccnc2F)cc(F)c1OCc1nnc[nH]1 [SSTN-612, 2-(4-(4-((4H-1,2,4-triazol-3-yl)methoxy)-3-fluoro-5-methoxyphenyl)-3-methyl-2-oxo-6-(trifluoromethyl)-2,3-dihydro-1H-benzo[d]imidazol-1-yl)-N-(2-fluoropyridin-3-yl)acetamide]",13.2
